Reference: patent US20100304998A1, “Chemical Proteomic Assay for Optimizing Drug Binding to Target Proteins” (MARQUETTE UNIVERSITY, priority 2009, published 2010)

What was measured:
[1] = biological target: T1, malate dehydrogenase (MDH) (Sus scrofa, UniProt P00346); experiment: 1H NMR STD (saturation transfer difference) binding assay, MDH; design: species or system porcine; settings: CRAA 3 mM
T1 construct: malate dehydrogenase (porcine heart) were from Sigma Aldrich; purchased Sigma Aldrich; host or cells: porcine heart
T1 sequence (P00346 25-338): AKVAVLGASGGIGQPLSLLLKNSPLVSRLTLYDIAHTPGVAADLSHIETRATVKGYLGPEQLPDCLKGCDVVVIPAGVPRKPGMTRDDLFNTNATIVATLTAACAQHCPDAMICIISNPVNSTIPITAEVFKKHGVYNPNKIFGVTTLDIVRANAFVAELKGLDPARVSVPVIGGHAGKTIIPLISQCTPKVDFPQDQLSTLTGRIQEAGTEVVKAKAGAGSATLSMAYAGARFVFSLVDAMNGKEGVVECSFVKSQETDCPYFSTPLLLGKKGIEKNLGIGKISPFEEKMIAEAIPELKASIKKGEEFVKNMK
Experimental: ^1H NMR STD (saturation transfer difference) spectra for CRAA binding to either malate dehydrogenase (MDH) (FIG. 13A) or glutamate dehydrogenase (FIG. 13B) establishes that the CRAA scaffold binds proteins that were identified using the proteomic assay, thereby validing the method for identifying non-target proteins. Glutamate dehydrogenase (bovine liver, GDH) and malate dehydrogenase (porcine heart) were from Sigma Aldrich. Both experiments were performed on a 600 MHz Varian NMR system at 25° C. using the cyclonecyclnoe pulse sequence (a steady state NOE experiment) with 256 scans. On and off resonance irradiations were at 0.5 and −11 ppm respectively, performed for 4 seconds each. […] (See FIG. 13). In both cases, CRAA was present at 3 mM and the binding study was done in a 25 mM phosphate buffer at pH 7.6 with 250 ug GDH or 166 ug MDH in a total volume of 0.6 mLs. The use of STD assays in functional proteomic binding studies has been described (Yao and Sem, FEBS Lett. (2005) 579, 661-666, the content of which is incorporated herein by reference in its entirety). To verify that binding had occurred in the cofactor binding site, competition studies were also performed (not shown). […] To test this hypothesis, the competition was reversed where 3 mM NADP+ STD signal was monitored before and after adding CRAA (1 mM). […]

human liver proteome = experiment: CRAA affinity column target fishing with nanospray-LC/MS/MS, human liver proteome; type: binding; settings: elution with free CRAA
[2] = biological target: T2, glutamate dehydrogenase (GDH) (Bos taurus, UniProt P00366); experiment: 1H NMR STD (saturation transfer difference) binding assay, GDH; design: species or system bovine
T2 construct: Glutamate dehydrogenase (bovine liver, GDH); purchased Sigma Aldrich; host or cells: bovine liver
Experimental: ^1H NMR STD (saturation transfer difference) spectra for CRAA binding to either malate dehydrogenase (MDH) (FIG. 13A) or glutamate dehydrogenase (FIG. 13B) establishes that the CRAA scaffold binds proteins that were identified using the proteomic assay, thereby validing the method for identifying non-target proteins. Glutamate dehydrogenase (bovine liver, GDH) and malate dehydrogenase (porcine heart) were from Sigma Aldrich. Both experiments were performed on a 600 MHz Varian NMR system at 25° C. using the cyclonecyclnoe pulse sequence (a steady state NOE experiment) with 256 scans. On and off resonance irradiations were at 0.5 and −11 ppm respectively, performed for 4 seconds each. […] (See FIG. 13). In both cases, CRAA was present at 3 mM and the binding study was done in a 25 mM phosphate buffer at pH 7.6 with 250 ug GDH or 166 ug MDH in a total volume of 0.6 mLs. The use of STD assays in functional proteomic binding studies has been described (Yao and Sem, FEBS Lett. (2005) 579, 661-666, the content of which is incorporated herein by reference in its entirety). To verify that binding had occurred in the cofactor binding site, competition studies were also performed (not shown). Addition of 1 mM NADH to the MDH sample caused a decrease in STD signal for CRAA (3 mM) of 35%. The analogous competition with GDH (using NADP+ as competitor) produced no change in STD signal for CRAA—which might be due to higher affinity for […]. To test this hypothesis, the competition was reversed where 3 mM NADP+ STD signal was monitored before and after adding CRAA (1 mM). A decrease in the NADP+ STD signal of 50% was now observed, due to CRAA addition.

KCNQ potassium channel = settings: cited from earlier work
[3] = biological target: T3, DHPR (dihydrodipicolinate reductase) (Escherichia coli, UniProt P04036); experiment: Covalent labeling of purified DHPR with NHS-CRAA, with NADH or PDC competitors (SDS-PAGE); type: binding, E. coli
T3 construct: made in house; host or cells: E. coli (pET11a DHPR expression construct)
Experimental: FIG. 8. SDS-PAGE gel of DHPR that has been labeled with NHS-CRAA active ester, but in the presence of increasing concentrations of either NADH or PDC (2,6-pyridine dicarboxylic acid) competitors, Lane 1, protein standard; Lanes 2-6, increasing NADH ([…]); Lanes 7-10, increasing PDC (1.1, 2.3, 4.5, 9.1 mM).
2 (NHS-CRAA) uptake into E. coli cells and labeling of DHPR. To assess whether 1 (CRAA) can make it across bacterial cell walls, and therefore whether 1 is a viable scaffold for anti-infective drug design efforts, experiments were performed to determine if its N-hydroxysuccinimide ester, 2 (NHS-CRAA; FIG. 2), could enter E. coli and label intracellular DHPR (dihydrodipicolinate reductase). DHPR is an anti-infective drug target, and is known to bind the CRAA scaffold (1)^21. The NHS-CRAA active ester (2)^35 was synthesized as in FIG. 2. The NHS (N-hydroxysuccinimide) group reacts with amines, and since it is attached to the linker position of 1 (where the acetic acid chain is attached), it should reside at the interface of the NADH and substrate binding sites^21 (FIG. 1), near lysine 163^36 (see FIG. 7). Indeed, DHPR is labeled with the NHS-CRAA (2) active ester, based on imaging of an SDS-PAGE gel of labeled protein (FIG. 8). Increasing NADH concentration appears to decrease band intensity while PDC has little effect up to 9 mM. […] Next, to explore whether cell wall penetration occurs, uptake of 2 was measured into E. coli that was expressing E. coli DHPR. Since we have recently shown that the CRAA scaffold (1) is bifunctional, in that it is itself weakly fluorescent^33, protein labeling could be monitored by fluorescence imaging of SDS-PAGE gels of crude cell extracts. […] That there is more labeling in cells expressing DHPR is evident based on the more intense color for cells expressing DHPR (FIG. 3c) and on fluorescence images of the cells (FIG. 3d).

[4] = test system: E. coli cells overexpressing DHPR; experiment: NHS-CRAA in-cell uptake and labeling study
Experimental: E. coli containing the pET11a DHPR expression construct was inoculated into 30 mL LB culture medium, growing overnight at 37° C., 225 rpm. The next day, 10 mL of this culture was added to two flasks (flasks A and B, each containing 800 mL LB medium with 50 μg/mL carbenicillin). The OD600 was monitored until it reached ˜1.0. To flask A was added 0.8 mL of a 0.4 M IPTG stock to start induction^58. Flask B was used as a control without induction. 5 hours later, cells were collected (centrifuged 10 minutes at 4,000 rpm) and washed once with 100 mM PBS buffer, pH 7.4. The Cells were then suspended in 100 mL of pH 7.4 PBS buffer (8 g NaCl, 0.2 g KCl, 1.44 g Na2HPO4, 0.24 g KH2PO4 in 1.0 L) and incubated for 5 minutes. Then, 1 mL NHS-CRAA ester (2) was added to each flask and incubated at room temperature for about 30 minutes (FIG. 3a). […] The gel was fluorescently imaged on a Kodak Image Station, to selectively detect 1 which has λmax for absorbance and emission at 465 nm and 535 nm^37. Cells were fluorescently imaged in PBS buffer after the wash (before lysis) using 495 nm/520 nm excitation/emission filters on the fluorescence microscope. Complementary fluorescence and bright field images may be shifted slightly relative to each other, because of bacterial motion between image captures. […]

ERG potassium channels = settings: ERG channels expressed by neurons; cited from earlier work
[5] = biological target: KCNQ1 and minK (KCNE1) potassium channel (Homo sapiens, UniProt P51787); settings: cardiac delayed rectifier potassium channel of heart muscle cells; read-out: KD for block of the KCNQ1/minK (KCNE1) channel; cited from earlier work
[6] = test system: potassium currents IA, IK, IAHP, IQ, IL; settings: IQ and IL currents; cited from earlier work

T2 sequence (P00366 58-558): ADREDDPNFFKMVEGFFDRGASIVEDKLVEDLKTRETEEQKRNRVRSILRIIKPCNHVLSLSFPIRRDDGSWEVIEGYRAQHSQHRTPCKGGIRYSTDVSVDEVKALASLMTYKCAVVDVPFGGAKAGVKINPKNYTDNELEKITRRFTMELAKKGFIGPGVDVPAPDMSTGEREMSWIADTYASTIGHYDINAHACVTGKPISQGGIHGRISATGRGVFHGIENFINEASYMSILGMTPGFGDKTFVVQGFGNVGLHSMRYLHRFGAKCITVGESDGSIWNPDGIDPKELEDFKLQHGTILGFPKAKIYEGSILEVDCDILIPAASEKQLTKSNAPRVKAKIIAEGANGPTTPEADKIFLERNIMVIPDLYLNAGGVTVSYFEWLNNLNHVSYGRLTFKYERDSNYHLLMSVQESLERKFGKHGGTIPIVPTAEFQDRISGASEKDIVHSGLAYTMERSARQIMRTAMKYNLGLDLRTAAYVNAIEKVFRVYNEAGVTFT
T3 sequence (P04036 whole entry): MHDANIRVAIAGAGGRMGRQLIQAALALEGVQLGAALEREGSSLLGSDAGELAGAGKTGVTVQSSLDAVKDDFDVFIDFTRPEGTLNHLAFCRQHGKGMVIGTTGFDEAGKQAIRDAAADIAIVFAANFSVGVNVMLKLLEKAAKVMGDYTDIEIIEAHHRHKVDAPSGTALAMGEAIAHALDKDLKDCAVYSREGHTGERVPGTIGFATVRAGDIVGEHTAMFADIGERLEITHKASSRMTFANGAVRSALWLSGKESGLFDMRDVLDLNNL
Sequence of KCNQ1 and minK (KCNE1) potassium channel (P51787 whole entry): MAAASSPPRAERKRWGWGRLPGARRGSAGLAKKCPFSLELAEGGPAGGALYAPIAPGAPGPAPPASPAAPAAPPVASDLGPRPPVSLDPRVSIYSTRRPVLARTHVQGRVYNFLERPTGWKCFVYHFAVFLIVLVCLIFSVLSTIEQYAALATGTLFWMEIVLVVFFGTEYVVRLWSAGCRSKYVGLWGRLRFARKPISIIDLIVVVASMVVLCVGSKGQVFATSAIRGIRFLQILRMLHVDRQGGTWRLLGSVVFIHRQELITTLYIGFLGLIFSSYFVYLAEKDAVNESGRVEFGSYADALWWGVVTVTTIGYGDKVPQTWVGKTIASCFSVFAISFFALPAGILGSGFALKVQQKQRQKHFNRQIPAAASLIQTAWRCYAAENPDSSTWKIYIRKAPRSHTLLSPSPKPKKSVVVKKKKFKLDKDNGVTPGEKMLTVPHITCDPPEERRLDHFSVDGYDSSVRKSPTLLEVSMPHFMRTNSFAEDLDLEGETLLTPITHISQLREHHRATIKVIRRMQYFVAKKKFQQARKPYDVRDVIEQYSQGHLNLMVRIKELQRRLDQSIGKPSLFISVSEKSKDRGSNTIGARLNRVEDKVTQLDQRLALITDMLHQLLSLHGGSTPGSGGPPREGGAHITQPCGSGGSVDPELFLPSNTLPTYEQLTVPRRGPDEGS

With `O=C(O)CN1C(=O)C(=Cc2ccc(O)c(O)c2)SC1=S` [CRAA, 5-[(3,4-dihydroxyphenyl)methylene]-4-oxo-2-thioxo-3-thiazolidineacetic acid] the “binding to malate dehydrogenase by STD difference spectrum” value ([1]; 166 ug MDH, 25 mM phosphate pH 7.6, 25° C.) was “binds to protein”, the “decrease in STD signal for CRAA on addition of NADH” value ([1]; 1 mM NADH competitor, MDH) was 35% and the “share of captured proteins that are NAD(P)(H)-binding proteins” value (human liver proteome) was greater than 50%. The “binding to glutamate dehydrogenase by STD difference spectrum” value ([2]; CRAA 3 mM, 250 ug GDH, 25 mM phosphate pH 7.6, 25° C.) was “binds to protein”, the “decrease in the NADP+ STD signal due to CRAA addition” value ([2]; GDH, 3 mM NADP+, CRAA 1 mM) was 50% and the “change in STD signal for CRAA with NADP+ as competitor” value ([2]; GDH, NADP+ competitor) was “no change”.

In the case of `O=C1c2ccccc2C(Cc2ccnc(F)c2)(Cc2ccnc(F)c2)c2ccccc21` [DMP543, 10, 10-Bis[(2-fluoro-4-pyridinyl)methyl]-9(10H)-anthracenone], the “effect on the KCNQ potassium channel” value (KCNQ potassium channel) is listed as “activate”.

With `O=C(CN1C(=O)C(=Cc2ccc(O)c(O)c2)SC1=S)ON1C(=O)CCC1=O` [NHS-CRAA, 5-[(3,4-dihydroxyphenyl)methylene]-4-oxo-2-thioxo-3-thiazolidineacetic N-hydroxysuccinimide ester] the “effect of PDC on labeling of DHPR” value ([3]; PDC up to 9 mM) was “little effect”, the “covalent labeling of purified DHPR” value ([3]; imaging of SDS-PAGE gel) was “labeled” and the “effect of NADH on labeling of DHPR” value ([3]; increasing NADH concentration) was “partially blocked”. The “crossing of the bacterial cell wall” value ([4]; intact E. coli cells overexpressing DHPR) was “can cross the cell wall” and the “labeling of DHPR within intact E. coli cells” value ([4]; intact cells overexpressing DHPR, about 30 minutes, room temperature, fluorescence imaging of SDS-PAGE gel) was “significant labeling”.

For `O=C1c2ccccc2C(Cc2ccncc2)(Cc2ccncc2)c2ccccc21` [XE991], the “effect on ERG potassium channels” value (ERG potassium channels) is given as “binds to and blocks the activity” and the Kd [5] is given as 11.1 ± 1.8 µM.

In the case of `O=C1N(c2ccccc2)c2ccccc2C1(Cc1ccncc1)Cc1ccncc1` [linopirdine], the “concentration at which several other potassium currents are blocked” value [6] is given as “above 10 μM”.
